Laboratory results reported in patent US9187459B2, “Quinazoline-7-ether compounds and methods of use” (NewGen Therapeutics, Inc., priority 2011, dated 2015).

Tests used:
ErbB2 (HER2) = ErbB2 (HER2) (Homo sapiens (Human), UniProt P04626); test: Kinase inhibition assay (TR-FRET, LanthaScreen), ErbB2 (HER2); type: biochemical; conditions: ATP 1 mM
Protocol: 1) The compound is dissolved in DMSO to prepare a 10 mM solution, and was diluted to 100 micoM with water. […] Kinase activity was determined with time-resolved Fret (TR-FRET) assay (LanthaScreen® kinase activity assay, from InVitrogen).
2) The assay is performed in a Black 384-well plate (from Corning). The kinase and the compound was incubated for […] at room temperature. ATP (1 mM) and fluorescein-poly GT were added, and the reaction was incubated for […]. Detection agent SA-XL665 (from Cisbio Assay) and TK Ab-Cryptate detection antibody (from InVitrogen) were added to stop the reaction.
3) The 384-well plate was sealed and incubated for 1 hour. The fluorescence was then measured at […] (Cryptate) and 665 nM (XL655) wavelength.
4) Each concentration of compound was done in triplicate, and vehicle (without compound) and a positive control were used.
Data process: the ratio of fluorescence is calculated (value of fluorescence 665 nM over […]). The results are calculated from: signal=compound fluorescence ratio−vehicle ratio, and the IC50 was calculated based on inhibition curve.

[1] = test system: Human breast cancer BT474 cells; test: Cell proliferation inhibition assay for BT474 (CCK-8); type: cell-based; conditions: BT-474, 72 h, text calls it EC50
Protocol: 1) Human breast cancer BT474 cells were plated 10000 cells/well in a 96-well clear tissue culture plate. The cells were incubated for 24 h at 37° C. to allow adherence.
2) A serials of concentrations of each compound (ranging from 30 uM to 0.16 nM, 5-fold dilution) in 96-well plate, and incubated for 72 h. Each concentration was tested in triplicate. During the cell proliferation assay, BT474 cells were cultured in the complete cell culture solution (low-glucose DMEM containing 5% FBS, 50 ug/ml gentamicin).
3) The culture medium was removed via aspiration, and the cell viability was detected by CCK-8 cell proliferation kit.
4) The EC50 was calculated based on the proliferation curve.

NCI-N87 xenograft = test: In vivo efficacy in NCI-N87 xenograft mouse model
Protocol: NCI-N87 cell line was purchased from ATCC (American Type Culture Collection) and was cultured in RPMI1640+10% FBS+1% P/S antibiotics.
Male Balb/c nude mice, 6-8 week, 18±2 g (supplier: Shanghai SLAC Laboratory Animal Co. Ltd.) were used for the experiment. The purchased mice were adapted to the environment for 7 days before use, and were housed at 22-25° C. with humidity 40-70%, and light cycle with fluorescent light for 12-hour light (8:00-20:00) 12-hour dark. The mice have free access to food and water.
The cancer cells (NCI-N87) were implanted subcutaneous into the nude mice (right flank) with 5.0×10^6 cells in 0.1 ml PBS (50 mice). When the tumor size reaches a volume of 200 (150-200) mm^3, the tumor-bearing nude mice were randomly assigned into groups (10 mice/group), one group was served as vehicle, one group was administrated with Lapatinib ditosylate monoydrate (80 mg/kg, free base of Lapatinib, not salt, p.o. bid). The other two groups were administrated with NT112 (15 and 30 mg/kg, p.o. q.d, respectively). The administration period lasted for 4 weeks.
The mice were monitored twice daily for appearance and behavior, and for signs of morbidity and/or mortality. The tumor volume was measured twice a week, and the body weight was measured immediately before measuring the tumor volume throughout the whole study.
At end of the experiment (compound administration for four weeks), all the tumor-bearing mice were sacrificed by cervical dislocation under deep anesthesia. The tumor mass was resected, and weighed.
Tumor sizes were measured twice weekly in two dimensions using a caliper, and the volume was expressed in mm^3 using the formula: V=½×a×b^2 where a and b are the long and short diameters of the tumor, respectively. The tumor mass was weighed at the end of the experiment after harvested. V=½×a×b^2 (a, b is maximum and minimum diameters respectively). RTV(Relative Tumor Volume)=Vt/Vo • Vo is the tumor volume when the test article is initial administrated • Vt is the tumor volume of every measurement day after test article administration T/C(%)=TRTV/CRTV×100% • TRTV: RTV of test article-treatment group; CRTV: RTV of control group Inhibition rate (%)=(average tumor volume of control group−average cancer volume of test article treatment group)/average tumor volume of control group×100%

[2] = Pharmacokinetics studies in mice; type: in vivo, CD-1 mice; conditions: for bioavailability: CD-1, plasma, mouse; for AUC(0-inf) / AUC(0-t) / Cmax / half-life / MRT: CD-1, mouse plasma
Protocol: (§1) The test article each was dissolved in 10% DMSO and 90% of (40% HP-β-CD in deionized water) to yield concentration at 0.4 mg/mL for intravenous administration, and 1 mg/mL for oral administration.
(§2) Method development and plasma samples analysis were performed by Analytical Sciences Division of the Testing Facility by means of LC-MS/MS. The analytical results were confirmed using quality control samples for intra-assay variation (within day variation). The accuracy of >66% of the quality control samples was between 80-120% of the known value(s).
Each group is consisted 30 CD-1 mice (supplied by Sino-British SIPPR/BK Lab. Animal Ltd., Co, Shanghai), 5-8 week old, 20-28 g body weight. The test articles were administered by a single bolus intravenous injection or via oral gavage.
Any animals in poor health were identified for further monitoring or possible euthanasia.
Blood samples (at least 300 μL/sample) were collected via cardiac puncture after euthanasia by carbon dioxide inhalation at appropriate time points for determination of the plasma concentrations of the test article. Samples were placed in tubes containing K3-EDTA and stored on ice until centrifuged.
Three mice in each group were used for blood collection at each of the 10 time points (Groups 1-10): Pre-dose and post-dose at 5 min, 15 min, 30 min, 1 h, 2 h, 4 h, 6 h, 8 h and 24 h.
The PK blood samples were centrifuged at approximately 8000 rpm for 6 minutes at 2-8° C. and the resulting plasma were separated and stored frozen at approximately −80° C. (following separation, the plasma may be initially placed on ice prior to being stored in the −80° C. freezer). All the plasma samples were labeled with detailed information such as study number, animal number, matrix, time points of collection and date of collection.
Standard set of parameters including Area Under the Curve (AUC(0-t) and AUC(0-∞)), elimination half-live (T1/2), maximum plasma concentration (Cmax), time to reach maximum plasma concentration (Tmax), clearance (CL), and volume of distribution (Vz) were calculated using noncompartmental analysis modules in FDA certified pharmacokinetic program WinNonlin Professional v5.2 (Pharsight, USA) by the Study Director. Furthermore, the Bioavailability was estimated using the following formula:
• AUC(0-t) Area under the curve from the time of dosing to the last measurable concentration • AUC(0-∞) Area under the curve from the time of dosing extrapolated to infinity, based on the last observed concentration • CL Total body clearance, CL=Dose/AUC • Cmax Maximum observed concentration, occurring at Tmax • F Bioavailability • MRT(0-∞) Mean residence time from the time of dosing to infinity • Tmax Time of maximum observed concentration • T1/2 Terminal half-life=ln(2)λz • Vz Volume of distribution based on the terminal phase

[3] = Pharmacokinetics studies in rats; type: in vivo, Sprauge Dawley rats; conditions: for bioavailability / AUC(0-inf) / AUC(0-t) / Cmax / clearance / half-life / Vd: male, Sprague-Dawley; for bioavailability: plasma, rat; for AUC(0-inf) / AUC(0-t) / Cmax / clearance / half-life / Vd / CL / Vz: rat plasma; for Vd: read-out: Vz
Protocol: as §1, §2
Each group consisted 3 male Sprauge Dawley rats (7-8 week old, 200-300 g body weight). The test articles were administered by a single bolus intravenous injection via the lateral tail vein or via oral gavage.
Blood samples (approximately 300 μl) were collected via retro-orbital puncture after anaesthesia using mixed gas (CO2:O2=7:3) into tubes containing EDTA-K3 anticoagulant at appropriate time points. 10 time points (Groups 1-2): Pre-dose and post-dose at 5 min, 15 min, 30 min, 1 h, 2 h, 4 h, 6 h, 8 h and 24 h.
The PK blood samples were processed and analyzed using the same methods as in Example 10.

Sequence of ErbB2 (HER2) (P04626 23-1255): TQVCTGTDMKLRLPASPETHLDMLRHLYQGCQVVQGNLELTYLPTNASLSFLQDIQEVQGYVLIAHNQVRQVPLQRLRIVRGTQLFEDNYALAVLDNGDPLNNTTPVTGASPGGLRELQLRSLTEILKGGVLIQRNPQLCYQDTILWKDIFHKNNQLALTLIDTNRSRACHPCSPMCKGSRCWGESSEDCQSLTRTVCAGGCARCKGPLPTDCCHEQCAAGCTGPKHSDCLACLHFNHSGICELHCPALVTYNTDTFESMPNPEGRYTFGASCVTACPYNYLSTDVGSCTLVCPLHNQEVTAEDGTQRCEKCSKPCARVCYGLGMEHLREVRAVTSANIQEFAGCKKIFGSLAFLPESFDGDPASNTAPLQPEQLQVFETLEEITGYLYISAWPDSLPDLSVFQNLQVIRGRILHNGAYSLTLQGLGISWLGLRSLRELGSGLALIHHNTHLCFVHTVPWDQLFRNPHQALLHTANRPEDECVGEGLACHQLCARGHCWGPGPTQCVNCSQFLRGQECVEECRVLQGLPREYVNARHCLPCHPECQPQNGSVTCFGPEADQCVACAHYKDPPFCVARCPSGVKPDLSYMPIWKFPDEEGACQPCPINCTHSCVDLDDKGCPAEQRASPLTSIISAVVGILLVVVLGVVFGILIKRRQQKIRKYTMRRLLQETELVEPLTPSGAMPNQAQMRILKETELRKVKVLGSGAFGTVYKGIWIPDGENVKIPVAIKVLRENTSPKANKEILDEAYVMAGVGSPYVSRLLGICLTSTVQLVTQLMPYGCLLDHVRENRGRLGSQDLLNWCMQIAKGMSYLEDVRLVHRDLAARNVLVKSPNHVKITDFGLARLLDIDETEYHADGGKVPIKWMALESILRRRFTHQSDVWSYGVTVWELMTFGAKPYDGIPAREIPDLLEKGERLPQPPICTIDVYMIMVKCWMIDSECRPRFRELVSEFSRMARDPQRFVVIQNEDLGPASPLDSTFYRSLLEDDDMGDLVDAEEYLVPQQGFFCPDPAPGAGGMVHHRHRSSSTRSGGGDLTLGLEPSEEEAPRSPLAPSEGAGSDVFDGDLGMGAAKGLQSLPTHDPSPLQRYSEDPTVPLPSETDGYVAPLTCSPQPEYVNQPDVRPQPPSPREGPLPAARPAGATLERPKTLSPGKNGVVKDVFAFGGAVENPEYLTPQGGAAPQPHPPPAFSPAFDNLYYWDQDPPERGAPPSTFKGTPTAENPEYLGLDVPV

## CN(C)C/C=C/C(=O)Nc1cc2c(Nc3ccc(F)c(Cl)c3)ncnc2cc1OCC12COCC1C2 (stereo not shown) [Example 5, (E)-N-(7-((3-oxa-bicyclo[3.1.0]hexan-1-yl)methoxy)-4-(3-chloro-4-fluorophenylamino)quinazolin-6-yl)-4-(dimethylamino)but-2-enamide]
ErbB2 (HER2)
  IC50: 91 nM
[1]
  IC50: 157 nM

## CN(C)C/C=C/C(=O)Nc1cc2c(Nc3ccc(F)c(Cl)c3)ncnc2cc1OC[C@H]1[C@@H]2COC[C@@H]21 [NT112]
NCI-N87 xenograft; 15 mg/kg po qd, 4 weeks
  side effect: without predefined side effect
NCI-N87 xenograft; 30 mg/kg p.o. qd, 7 days/week, onset day 3, maximal day 11, dosing stopped, recovered by day 28
  body weight change: led to body weight loss
NCI-N87 xenograft; day 7, 15 mg/kg po qd
  RTV T/C: < 30%
  tumor growth inhibition: > 70%
NCI-N87 xenograft; day 7, 30 mg/kg po qd
  RTV T/C: < 30%
  tumor growth inhibition: > 70%
[2]; IV 1 mg/Kg (reference)
  bioavailability: 100%
[2]; PO 5 mg/Kg
  bioavailability: 49.7%
  AUC(0-inf): 1470 ng·h/mL
  AUC(0-t): 1420 ng·h/mL
  Cmax: 272 ng/mL
  half-life: 11.1 h
[2]; IV 1 mg/Kg
  AUC(0-inf): 592 ng·h/mL
  AUC(0-t): 575 ng·h/mL
  Cmax: 236 ng/mL
  half-life: 4.44 h
[3]; IV 1 mg/Kg (reference)
  bioavailability: 100%
[3]; po, 5 mg/kg
  bioavailability: 68%
[3]; IV 1 mg/Kg
  AUC(0-inf): 248 ng·h/mL
  AUC(0-t): 220 ng·h/mL
  Cmax: 59.3 ng/mL
  clearance: 67.2 mL/min/kg
  half-life: 6.05 h
  Vd: 10.6 L/kg
[3]; PO 5 mg/Kg
  AUC(0-inf): 843 ng·h/mL
  AUC(0-t): 434 ng·h/mL
  Cmax: 74.9 ng/mL
  half-life: 20 h
  CL: 98.8 mL/min/kg
  Vz: 51.55 L/kg
[3]; oral administration
  exposure and oral bioavailability with oral administration, compared to afatinib: higher exposure and better oral bioavailability

## CN(C)C/C=C/C(=O)Nc1cc2c(Nc3ccc(F)c(Cl)c3)ncnc2cc1OC[C@@]12COC[C@@H]1C2 [Example 4, (E)-N-(7-(((1R,5R)-3-oxa-bicyclo[3.1.0]hexan-1-yl)methoxy)-4-(3-chloro-4-fluorophenylamino)quinazolin-6-yl)-4-(dimethylamino)but-2-enamide]
ErbB2 (HER2)
  IC50: 22 nM
[1]
  IC50: 25.6 nM

## CN(C)C/C=C/C(=O)Nc1cc2c(Nc3ccc(F)c(Cl)c3)ncnc2cc1O[C@H]1CCOC1 [afatinib, reference compound]
[2]; IV 1 mg/Kg (reference)
  bioavailability: 100%
[2]; PO 5 mg/Kg
  bioavailability: 62%
  AUC(0-t): 167 ng·h/mL
  Cmax: 17.6 ng/mL
  MRT: 9.3 h
[2]; IV 1 mg/Kg
  AUC(0-t): 54 ng·h/mL
  Cmax: 109 ng/mL
  MRT: 1.6 h
[3]; IV 1 mg/Kg (reference)
  bioavailability: 100%
[3]; po, 5 mg/kg
  bioavailability: 44.7%
[3]; IV 1 mg/Kg
  AUC(0-inf): 147 ng·h/mL
  AUC(0-t): 137 ng·h/mL
  Cmax: 55.6 ng/mL
  clearance: 114 mL/min/kg
  half-life: 5.12 h
  Vd: 15.2 L/kg
[3]; PO 5 mg/Kg
  AUC(0-inf): 328 ng·h/mL
  AUC(0-t): 215 ng·h/mL
  Cmax: 49.2 ng/mL
  half-life: 11 h
  CL: 254.3 mL/min/kg
  Vz: 73.02 L/kg

## CS(=O)(=O)CCNCc1ccc(-c2ccc3ncnc(Nc4ccc(OCc5cccc(F)c5)c(Cl)c4)c3c2)o1 [Lapatinib, reference compound]
NCI-N87 xenograft; day 7, 80 mg/kg p.o. bid
  RTV T/C: 31%
  tumor growth inhibition rate: 69%
NCI-N87 xenograft; day 28 (last day of the study), 80 mg/kg p.o. bid
  tumor inhibition rate: 92.9%

## CO[C@@H]1CO[C@@H]2[C@H]1OC[C@@H]2Oc1cc2ncnc(Nc3ccc(F)c(Cl)c3)c2cc1NC(=O)/C=C/CN(C)C [Example 1, (E)-N-(7-((3R,3aS,6S,6aS)-hexahydro-3-methoxyfuro[3,2-b]furan-6-yloxy)-4-(3-chloro-4-fluorophenylamino)quinazolin-6-yl)-4-(dimethylamino)but-2-enamide]
ErbB2 (HER2)
  IC50: 25 nM
[1]
  IC50: 35.9 nM

## CN(C)C/C=C/C(=O)Nc1cc2c(Nc3ccc(F)c(Cl)c3)ncnc2cc1OC[C@]12COC[C@H]1C2 [Example 3, (E)-N-(7-(((1S,5S)-3-oxa-bicyclo[3.1.0]hexan-1-yl)methoxy)-4-(3-chloro-4-fluorophenylamino)quinazolin-6-yl)-4-(dimethylamino)but-2-enamide]
ErbB2 (HER2)
  IC50: 23 nM
[1]
  IC50: 31.8 nM
